Experiment [1] concerns the target T1, PBP1a from Acinetobacter baumannii (ATCC 19606) (Acinetobacter baumannii, UniProt A0ABX6CK30).
T1 sequence (A0ABX6CK30 1-851): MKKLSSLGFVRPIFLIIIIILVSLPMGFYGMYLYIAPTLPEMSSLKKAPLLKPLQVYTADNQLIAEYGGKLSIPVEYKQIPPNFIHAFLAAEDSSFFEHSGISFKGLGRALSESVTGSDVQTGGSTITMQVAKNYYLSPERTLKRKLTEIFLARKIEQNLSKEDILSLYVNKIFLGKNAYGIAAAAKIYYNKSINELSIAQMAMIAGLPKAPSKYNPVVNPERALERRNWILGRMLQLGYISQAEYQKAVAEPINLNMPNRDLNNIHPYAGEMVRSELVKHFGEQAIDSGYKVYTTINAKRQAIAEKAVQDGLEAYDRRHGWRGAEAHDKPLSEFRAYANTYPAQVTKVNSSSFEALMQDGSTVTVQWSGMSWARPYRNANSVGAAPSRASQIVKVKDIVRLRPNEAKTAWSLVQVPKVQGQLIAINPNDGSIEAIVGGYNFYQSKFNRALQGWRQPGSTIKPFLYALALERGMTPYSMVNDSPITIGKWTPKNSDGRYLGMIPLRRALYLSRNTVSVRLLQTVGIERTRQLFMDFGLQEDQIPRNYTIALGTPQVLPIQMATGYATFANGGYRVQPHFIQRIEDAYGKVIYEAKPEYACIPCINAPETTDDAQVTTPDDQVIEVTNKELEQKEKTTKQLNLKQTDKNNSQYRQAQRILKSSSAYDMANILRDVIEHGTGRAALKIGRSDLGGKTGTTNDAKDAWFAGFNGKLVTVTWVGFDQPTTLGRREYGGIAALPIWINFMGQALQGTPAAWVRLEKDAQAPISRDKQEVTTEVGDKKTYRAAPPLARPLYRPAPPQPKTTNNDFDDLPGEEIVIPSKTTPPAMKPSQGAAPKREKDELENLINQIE
Description: Bocillin-FL fluorescence polarization competition binding, A. baumannii PBP1a. The following applies: fluorescence polarization competition binding assay using Bocillin-FL; read-out: A. baumannii PBP1a Potency. In outline:
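Purified PBPs pre-incubated with inhibitor (E. coli PBP3 1.5 μM, 30 min; P. aeruginosa PBP3 0.75 μM, A. baumannii PBP1a 1 μM and PBP3 0.2 μM, 15 min), then Bocillin-FL 0.1 μM (0.05 μM for PBP1a) added; FP read up to 60 min. EC50 = concentration halving bound Bocillin-FL.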
(In general: Polarisation of emitted light reports the rotation of a fluorescent probe.)

The next experiment relates to N. gonorrhoeae WHO Q. Description: Liquid broth MIC in Fastidious broth. The following applies: Neisseria gonorrhoeae, read-out: Minimum Inhibitory Concentration, WHO Q.
The subject of another experiment is A. baumannii CDC-0036. Description: microbe, parasite or virus in culture. Type of experiment: cell-based. The following applies: Acinetobacter baumannii, CDC0036, read-out: MIC, A. baumannii CDC-0036.
A further experiment deals with P. aeruginosa ATCC 35151. Nature of the experiment: microbe, parasite or virus in culture. Type of experiment: cell-based. The following applies: Pseudomonas aeruginosa, ATCC35151, read-out: Minimum inhibitory concentration, P. aeruginosa ATCC 35151.
In another experiment the test system is P. aeruginosa CDC-0054. Nature of the experiment: microbe, parasite or virus in culture. Type of experiment: cell-based. The following applies: Pseudomonas aeruginosa, CDC0054, read-out: Minimum inhibitory concentration, P. aeruginosa CDC-0054.

SMILES strings stand for the structures. In brackets after ≈: the same amount, converted by molar mass.

For the compound `O=C(NCCS(=O)(=O)N1CCN(C(=O)NC(C(=O)N[C@H]2Cc3ccc(F)c(C(=O)O)c3OB2O)c2cc(F)c(O)c(O)c2Cl)C1=O)Nc1cccc(O)c1` (stereo partly drawn) [Example 266, (3R)-3-(2-(2-chloro-5-fluoro-3,4-dihydroxyphenyl)-2-(3-((2-(3-(3-hydroxyphenyl)ureido)ethyl)sulfonyl)-2-oxoimidazolidine-1-carboxamido)acetamido)-7-fluoro-2-hydroxy-3,4-dihydro-2H-benzo[e][1,2]oxaborinine-8-carboxylic acid], the IC50 in experiment [1] was greater than 250 µM. Moreover, the MIC was 16 to 32 µg/mL (≈ 20.1 to 40.2 µM) with N. gonorrhoeae WHO Q, 2 to 4 µg/mL (≈ 2.51 to 5.02 µM) with A. baumannii CDC-0036, less than 1 µg/mL in the experiment with P. aeruginosa ATCC 35151 and 2 to 4 µg/mL (≈ 2.51 to 5.02 µM) with P. aeruginosa CDC-0054.

Regarding `O=C(NCCS(=O)(=O)N1CCN(C(=O)N[C@@H](C(=O)N[C@H]2Cc3ccc(F)c(C(=O)O)c3OB2O)c2cc(F)c(O)c(O)c2Cl)C1=O)Nc1cccnc1` [Example 267, (R)-3-((R)-2-(2-chloro-5-fluoro-3,4-dihydroxyphenyl)-2-(2-oxo-3-((2-(3-(pyridin-3-yl)ureido)ethyl)sulfonyl)imidazolidine-1-carboxamido)acetamido)-7-fluoro-2-hydroxy-3,4-dihydro-2H-benzo[e][1,2]oxaborinine-8-carboxylic acid], in experiment [1], the IC50 was greater than 250 µM. Further, the MIC in the experiment with N. gonorrhoeae WHO Q was 16 to 32 µg/mL (≈ 20.5 to 40.9 µM); in the experiment with A. baumannii CDC-0036, 2 to 4 µg/mL (≈ 2.56 to 5.12 µM); with P. aeruginosa ATCC 35151, less than 1 µg/mL; in the experiment on P. aeruginosa CDC-0054, 2 to 4 µg/mL (≈ 2.56 to 5.12 µM).

As for `O=C(NCCCS(=O)(=O)N1CCN(C(=O)NC(C(=O)N[C@H]2Cc3ccc(F)c(C(=O)O)c3OB2O)c2cc(F)c(O)c(O)c2Cl)C1=O)c1ccccc1` (stereo partly drawn) [Example 268, (3R)-3-(2-(3-((3-benzamidopropyl)sulfonyl)-2-oxoimidazolidine-1-carboxamido)-2-(2-chloro-5-fluoro-3,4-dihydroxyphenyl)acetamido)-7-fluoro-2-hydroxy-3,4-dihydro-2H-benzo[e][1,2]oxaborinine-8-carboxylic acid], the IC50 in experiment [1] is greater than 250 µM. In addition, the MIC with N. gonorrhoeae WHO Q is 16 to 32 µg/mL (≈ 20.5 to 41 µM); in the experiment on A. baumannii CDC-0036 it was 2 to 4 µg/mL (≈ 2.56 to 5.13 µM); with P. aeruginosa ATCC 35151 it was less than 1 µg/mL; with P. aeruginosa CDC-0054, 8 to 16 µg/mL (≈ 10.3 to 20.5 µM).

For the compound `O=C(NCCCS(=O)(=O)N1CCN(C(=O)NC(C(=O)N[C@H]2Cc3ccc(F)c(C(=O)O)c3OB2O)c2cc(F)c(O)c(O)c2Cl)C1=O)c1ccc(O)cc1` (stereo partly drawn) [Example 269, (3R)-3-(2-(2-chloro-5-fluoro-3,4-dihydroxyphenyl)-2-(3-((3-(4-hydroxybenzamido)propyl)sulfonyl)-2-oxoimidazolidine-1-carboxamido)acetamido)-7-fluoro-2-hydroxy-3,4-dihydro-2H-benzo[e][1,2]oxaborinine-8-carboxylic acid], in experiment [1], the IC50 is greater than 250 µM. Also, the MIC was 16 to 32 µg/mL (≈ 20.1 to 40.2 µM) in the experiment with N. gonorrhoeae WHO Q, 8 to 16 µg/mL (≈ 10.1 to 20.1 µM) in the experiment with A. baumannii CDC-0036, less than 1 µg/mL in the experiment on P. aeruginosa ATCC 35151 and 2 to 4 µg/mL (≈ 2.51 to 5.03 µM) in the experiment with P. aeruginosa CDC-0054.

Consider `O=C(NCCCS(=O)(=O)N1CCN(C(=O)N[C@H](C(=O)N[C@H]2Cc3ccc(F)c(C(=O)O)c3OB2O)c2cc(F)c(O)c(O)c2Cl)C1=O)c1cccc(O)c1` [Example 270, (R)-3-((S)-2-(2-chloro-5-fluoro-3,4-dihydroxyphenyl)-2-(3-((3-(3-hydroxybenzamido)propyl)sulfonyl)-2-oxoimidazolidine-1-carboxamido)acetamido)-7-fluoro-2-hydroxy-3,4-dihydro-2H-benzo[e][1,2]oxaborinine-8-carboxylic acid], for which the IC50 in experiment [1] was greater than 250 µM. In addition, the MIC in the experiment on N. gonorrhoeae WHO Q is greater than 64 µg/mL; in the experiment with A. baumannii CDC-0036, 32 to 64 µg/mL (≈ 40.2 to 80.4 µM); in the experiment on P. aeruginosa ATCC 35151 it was less than 1 µg/mL; in the experiment on P. aeruginosa CDC-0054 it was greater than 128 µg/mL.

Consider `O=C(NCCCS(=O)(=O)N1CCN(C(=O)N[C@@H](C(=O)N[C@H]2Cc3ccc(F)c(C(=O)O)c3OB2O)c2cc(F)c(O)c(O)c2Cl)C1=O)c1cccc(O)c1` [Example 271, (R)-3-((R)-2-(2-chloro-5-fluoro-3,4-dihydroxyphenyl)-2-(3-((3-(3-hydroxybenzamido)propyl)sulfonyl)-2-oxoimidazolidine-1-carboxamido)acetamido)-7-fluoro-2-hydroxy-3,4-dihydro-2H-benzo[e][1,2]oxaborinine-8-carboxylic acid], for which the IC50 in experiment [1] was greater than 250 µM. Besides, the MIC with N. gonorrhoeae WHO Q is 16 to 32 µg/mL (≈ 20.1 to 40.2 µM); in the experiment on A. baumannii CDC-0036 it was 2 to 4 µg/mL (≈ 2.51 to 5.03 µM); in the experiment with P. aeruginosa ATCC 35151 it was less than 1 µg/mL; with P. aeruginosa CDC-0054 it was 2 to 4 µg/mL (≈ 2.51 to 5.03 µM).

Turning to `O=C(NCCCS(=O)(=O)N1CCN(C(=O)NC(C(=O)N[C@H]2Cc3ccc(F)c(C(=O)O)c3OB2O)c2cc(F)c(O)c(O)c2Cl)C1=O)c1ccncc1` (stereo partly drawn) [Example 272, (3R)-3-(2-(2-chloro-5-fluoro-3,4-dihydroxyphenyl)-2-(3-((3-(isonicotinamido)propyl)sulfonyl)-2-oxoimidazolidine-1-carboxamido)acetamido)-7-fluoro-2-hydroxy-3,4-dihydro-2H-benzo[e][1,2]oxaborinine-8-carboxylic acid], the IC50 in experiment [1] was greater than 250 µM. For the same compound, the MIC in the experiment with N. gonorrhoeae WHO Q is 16 to 32 µg/mL (≈ 20.5 to 41 µM); in the experiment on A. baumannii CDC-0036 it was 2 to 4 µg/mL (≈ 2.56 to 5.12 µM); in the experiment with P. aeruginosa ATCC 35151 it was less than 1 µg/mL; with P. aeruginosa CDC-0054, 8 to 16 µg/mL (≈ 10.2 to 20.5 µM).

For `O=C(NCCCS(=O)(=O)N1CCN(C(=O)NC(C(=O)N[C@H]2Cc3ccc(F)c(C(=O)O)c3OB2O)c2cc(F)c(O)c(O)c2Cl)C1=O)c1cccnc1` (stereo partly drawn) [Example 273, (3R)-3-(2-(2-chloro-5-fluoro-3,4-dihydroxyphenyl)-2-(3-((3-(nicotinamido)propyl)sulfonyl)-2-oxoimidazolidine-1-carboxamido)acetamido)-7-fluoro-2-hydroxy-3,4-dihydro-2H-benzo[e][1,2]oxaborinine-8-carboxylic acid], the IC50 in experiment [1] was greater than 250 µM. Moreover, the MIC was 16 to 32 µg/mL (≈ 20.5 to 41 µM) in the experiment on N. gonorrhoeae WHO Q, 2 to 4 µg/mL (≈ 2.56 to 5.12 µM) with A. baumannii CDC-0036, less than 1 µg/mL with P. aeruginosa ATCC 35151 and 2 to 4 µg/mL (≈ 2.56 to 5.12 µM) with P. aeruginosa CDC-0054.

For `O=C(NCCCS(=O)(=O)N1CCN(C(=O)NC(C(=O)N[C@H]2Cc3ccc(F)c(C(=O)O)c3OB2O)c2cc(F)c(O)c(O)c2Cl)C1=O)c1nccs1` (stereo partly drawn) [Example 274, (3R)-3-(2-(2-chloro-5-fluoro-3,4-dihydroxyphenyl)-2-(2-oxo-3-((3-(thiazole-2-carboxamido)propyl)sulfonyl)imidazolidine-1-carboxamido)acetamido)-7-fluoro-2-hydroxy-3,4-dihydro-2H-benzo[e][1,2]oxaborinine-8-carboxylic acid], the IC50 in experiment [1] was greater than 250 µM. Further, the MIC in the experiment with N. gonorrhoeae WHO Q is 16 to 32 µg/mL (≈ 20.3 to 40.7 µM); with A. baumannii CDC-0036, 2 to 4 µg/mL (≈ 2.54 to 5.08 µM); with P. aeruginosa ATCC 35151, less than 1 µg/mL; in the experiment with P. aeruginosa CDC-0054, 2 to 4 µg/mL (≈ 2.54 to 5.08 µM).

`O=C(NCCCS(=O)(=O)N1CCN(C(=O)NC(C(=O)N[C@H]2Cc3ccc(F)c(C(=O)O)c3OB2O)c2cc(F)c(O)c(O)c2Cl)C1=O)Nc1ccc(O)cc1` (stereo partly drawn) [Example 276, (3R)-3-(2-(2-chloro-5-fluoro-3,4-dihydroxyphenyl)-2-(3-((3-(3-(4-hydroxyphenyl)ureido)propyl)sulfonyl)-2-oxoimidazolidine-1-carboxamido)acetamido)-7-fluoro-2-hydroxy-3,4-dihydro-2H-benzo[e][1,2]oxaborinine-8-carboxylic acid]: the IC50 in experiment [1] is greater than 250 µM. In addition, the MIC with N. gonorrhoeae WHO Q is 16 to 32 µg/mL (≈ 19.7 to 39.5 µM); in the experiment with A. baumannii CDC-0036, 2 to 4 µg/mL (≈ 2.47 to 4.93 µM); with P. aeruginosa ATCC 35151, less than 1 µg/mL; with P. aeruginosa CDC-0054, 8 to 16 µg/mL (≈ 9.87 to 19.7 µM).
